A word on the IC50: it is the concentration that inhibits the measured activity by half.

Experiment [1] addresses T1, Adrenergic receptor alpha-1 (Rattus norvegicus, UniProt P15823+P23944+P43140).
T1 sequence (P15823 whole entry): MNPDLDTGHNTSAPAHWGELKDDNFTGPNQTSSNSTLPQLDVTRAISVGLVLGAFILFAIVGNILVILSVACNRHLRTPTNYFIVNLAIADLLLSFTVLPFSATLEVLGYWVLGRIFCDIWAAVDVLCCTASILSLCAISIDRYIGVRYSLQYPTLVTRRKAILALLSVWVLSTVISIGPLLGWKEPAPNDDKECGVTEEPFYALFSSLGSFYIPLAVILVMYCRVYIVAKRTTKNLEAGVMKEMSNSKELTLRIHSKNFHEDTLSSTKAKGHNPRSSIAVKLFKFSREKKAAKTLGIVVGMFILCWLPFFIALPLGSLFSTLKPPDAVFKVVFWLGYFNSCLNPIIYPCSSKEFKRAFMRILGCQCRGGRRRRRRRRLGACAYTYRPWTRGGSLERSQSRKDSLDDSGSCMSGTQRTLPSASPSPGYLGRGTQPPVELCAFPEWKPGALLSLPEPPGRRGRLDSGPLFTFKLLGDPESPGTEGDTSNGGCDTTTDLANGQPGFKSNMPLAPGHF
T1 sequence (P23944 whole entry): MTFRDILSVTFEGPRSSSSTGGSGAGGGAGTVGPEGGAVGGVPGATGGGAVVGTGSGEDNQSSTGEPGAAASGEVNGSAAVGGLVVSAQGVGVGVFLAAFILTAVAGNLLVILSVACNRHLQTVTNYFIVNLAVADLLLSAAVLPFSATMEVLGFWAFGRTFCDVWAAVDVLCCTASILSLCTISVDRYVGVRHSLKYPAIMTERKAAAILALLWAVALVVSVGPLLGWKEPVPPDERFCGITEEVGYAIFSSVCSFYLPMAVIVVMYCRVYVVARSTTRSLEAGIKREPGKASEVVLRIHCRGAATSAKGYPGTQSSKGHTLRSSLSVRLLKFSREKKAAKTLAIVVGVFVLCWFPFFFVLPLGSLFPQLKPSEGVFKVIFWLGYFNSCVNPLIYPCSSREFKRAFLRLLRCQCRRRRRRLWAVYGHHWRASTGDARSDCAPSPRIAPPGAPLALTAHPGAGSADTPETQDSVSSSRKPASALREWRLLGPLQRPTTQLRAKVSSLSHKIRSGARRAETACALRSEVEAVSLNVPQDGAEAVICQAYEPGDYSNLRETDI
T1 sequence (P43140 whole entry): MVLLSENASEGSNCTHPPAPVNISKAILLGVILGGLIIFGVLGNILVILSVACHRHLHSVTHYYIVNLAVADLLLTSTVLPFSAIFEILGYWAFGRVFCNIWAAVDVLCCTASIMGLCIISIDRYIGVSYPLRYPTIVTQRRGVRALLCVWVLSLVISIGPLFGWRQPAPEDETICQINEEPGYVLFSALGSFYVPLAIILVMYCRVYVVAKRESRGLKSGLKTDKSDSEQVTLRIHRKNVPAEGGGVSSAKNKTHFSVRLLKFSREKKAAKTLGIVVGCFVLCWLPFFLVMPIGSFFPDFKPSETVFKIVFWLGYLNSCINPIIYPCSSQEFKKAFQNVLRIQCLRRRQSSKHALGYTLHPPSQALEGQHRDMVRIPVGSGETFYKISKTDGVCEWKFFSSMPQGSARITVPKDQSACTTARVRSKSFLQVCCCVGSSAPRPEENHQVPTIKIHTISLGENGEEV
Briefly: Inhibition of alpha-1 adrenergic receptor isolated from rat ventricle homogenates.

The target in experiment [2] is T2, Adrenergic receptor beta (Rattus norvegicus) (UniProt P18090+P10608+P26255).
For experiment [3], the species on record is Cavia porcellus. Briefly: Ionotropic effect in electrically driven left atrial preparation (Atria isolated from guinea pig) and is expressed in pA2. The note with it: Cardiac atrium, read-out: pA2 (converted).
For experiment [4], the system named is Rattus norvegicus. Briefly: Tested for MED (smallest dose giving maximum effect) evaluated by dose-response curve, from 0.1 to 5 mg/kg in 5-10 animals on iv administration. It is filed as functional. To be noted: dose mg/kg 0.1-5.
Experiment [5] is filed under the species Cavia porcellus. Briefly: Chronotropic effect studied in right atria isolated from guinea pig and is expressed in pA2. To be noted: read-out: pA2 (converted).
The target in experiment [6] is Beta-1 adrenergic receptor (Cavia porcellus). Briefly: Beta-1 adrenergic receptor-Antagonism in isolated guinea pig atria. ( for R-enantiomer). The note with it: read-out: pA2 app (converted).
Experiment [7] deals with T3, Adrenergic receptor beta (Rattus norvegicus, UniProt P18090+P10608+P26255). Briefly: Inhibition of beta adrenergic receptor isolated from rat ventricle homogenates.
Experiment [8] is filed under the species Rattus norvegicus. Briefly: The compound was tested for percent increase in heart rate with respect to that measured after isoprenaline in 5-10 animals and showing significant increase (p <= 0.05) with respect to baseline values (293 +/- 7 to 310 +/- 5 […]). The experiment is classed as functional.
Experiment [9] has as its target T3, Adrenergic receptor beta. The experiment can be described thus: The compound was tested for the concentration to inhibit 50% of Beta adrenergic receptor isolated from rat ventricle homogenates. It is filed as functional.
The species entered for experiment [10] is Rattus norvegicus. The experiment can be described thus: The compound was tested for percent increase in heart rate with respect to that measured after isoprenaline in 5-10 animals. The experiment is classed as functional.
For experiment [11], the target named is T2, Adrenergic receptor beta (Rattus norvegicus). Briefly: In vitro inhibitory specificity for Beta adrenergic receptor was evaluated; ND=not determined. It is filed as protein assay.
In experiment [12] the target is T3, Adrenergic receptor beta. Briefly: The compound was tested for the concentration to inhibit 50% of Beta adrenergic receptor isolated from rat ventricle homogenates; ND=not determined.

For the molecule `CC(C)(C)c1ccc(NCC(O)CON=C(C2CC2)C2CC2)cc1` (configuration not stated), the results for the IC50 in experiment [1] and in [7] were 70800 nM and 3.4 nM, respectively. This molecule showed a Specificity in [2] of 20800. Further, the Kb is 50.1 nM in experiment [3], 12.6 nM in experiment [5] and 11 nM in [6]. Also, the MED in experiment [4] is 2 µmol/kg. The molecule further came in with an Increase in [8] of 44%.

As to `Cc1ccc(NCC(O)CON=C(C2CC2)C2CC2)cc1` (configuration not stated), the figures for the IC50 in experiment [1] and in experiment [7] were 15000 nM and 7.6 nM, respectively. This molecule returned a Specificity in experiment [2] of 1970. Moreover, the results for the Kb in [3], in experiment [5] and in experiment [6] were 10 nM, 12.6 nM and 12.6 nM, respectively. The molecule further showed an MED in experiment [4] of 2.5 µmol/kg. This molecule returned an Increase in experiment [8] of 64%.

As for `CC(C)(Cc1ccc(NCC(O)CON=C(C2CC2)C2CC2)cc1)[N+](=O)[O-]` (configuration not stated), the IC50 in experiment [1] stood at 12600 nM; in [9], 3.4 nM. In addition, the Specificity in experiment [2] came out at 3700. For the same molecule, the Kb in [3] was 79.4 nM; in experiment [5], 20 nM. Moreover, the MED in experiment [4] was determined as 2.4 µmol/kg. This molecule also had an Increase in experiment [10] of 10%.

For `Oc1ccc(NCC(O)CON=C(C2CC2)C2CC2)cc1` (configuration not stated), the IC50 in experiment [1] worked out at 28300 nM; in experiment [12] it was 10.4 nM. In addition, the Kb in experiment [3] was 200 nM; in [5], 79.4 nM. The same molecule had a Specificity in experiment [11] of 2730. Moreover, the MED in [4] is 3.1 µmol/kg. In experiment [10], this molecule gave an Increase of 10%.

For the molecule `Cc1ccccc1NCC(O)CON=C(C1CC1)C1CC1` (configuration not stated), the results for the IC50 in [1] and in experiment [7] were 22000 nM and 13 nM, respectively. Further, in [2], the Specificity came to 1690. Besides, the Kb was 251 nM in experiment [3] and 126 nM in experiment [5]. The MED in experiment [4] is 5.3 µmol/kg. In [8], this molecule had an Increase of 37%.

The values are drawn from ChEMBL document CHEMBL1131212, “Synthesis and adrenergic activity of a new series of N-aryl dicyclopropyl ketone oxime ethers: SAR and stereochemical aspects” (J Med Chem, 1998).
